Assay [1] relates to BRIN-BD11 cells. In words: Acute tests for insulin secretion from BRIN-BD11 cells. Conditions: 5.6 and 16.7 mM glucose, 10^-13 to 10^-8 M peptide. The assay is classed as cell-based. On the procedure:
Culture of insulin secreting cells. BRIN-BD11 cells were cultured in sterile tissue culture flasks (Corning, Glass Works, UK) using RPMI-1640 tissue culture medium containing 10% (v/v) foetal calf serum, 1% (v/v) antibiotics (100 U/ml penicillin, 0.1 mg/ml streptomycin) and 11.1 mM glucose. The cells were maintained at 37° C. in an atmosphere of 5% CO2 and 95% air using a LEEC incubator (Laboratory Technical Engineering, Nottingham, UK).
Acute tests for insulin secretion. Before experimentation, the cells were harvested from the surface of the tissue culture flasks with the aid of trypsin/EDTA (Gibco), seeded into 24-multiwell plates (Nunc, Roskilde, Denmark) at a density of 1.5×10^5 cells per well, and allowed to attach overnight at 37° C. Acute tests for insulin release were preceded by 40 minutes pre-incubation at 37° C. in 1.0 ml Krebs Ringer bicarbonate buffer (115 mM NaCl, 4.7 mM KCl, 1.28 mM CaCl2, 1.2 mM KH2PO4, 1.2 mM MgSO4, 10 mM NaHCO3, 5 g/l bovine serum albumin, pH 7.4) supplemented with 1.1 mM glucose. Test incubations were performed (n=12) at two glucose concentrations (5.6 mM and 16.7 mM) with a range of concentrations (10^−13 to 10^−8 M) of GIP or GIP analogues. After 20 minutes incubation, the buffer was removed from each well and aliquots (200 μl) were used for measurement of insulin by radioimmunoassay.

In assay [2] the test system is BRIN-BD11 cells. In words: Insulin release from clonal pancreatic BRIN-BD11 cells (Example 6). Particulars: 5.6 mmol/l glucose, 20 minutes incubation. The assay is classed as cell-based. The procedure: Cells and cell culture. Chinese hamster lung (CHL) fibroblasts stably transfected with the human GIP receptor (Gremlich, S. et al., 1995, Diabetes 44: 1202-1208) were cultured in DMEM tissue culture medium containing 10% (v/v) FBS, 1% (v/v) antibiotics (100 U/ml penicillin, 0.1 mg/ml streptomycin). Clonal pancreatic BRIN-BD11 cells (McClenaghan, N. H. et al., 1996, Diabetes 45: 1132-1140) were cultured using RPMI-1640 culture medium containing 10% (v/v) FBS, 1% (v/v) antibiotics (100 U/ml penicillin, 0.1 mg/ml streptomycin) and 11.1 mmol/l glucose. Cells were maintained at 37° C. in an atmosphere of 5% CO2 and 95% air using an LEEC incubator (Laboratory Technical Engineering, Nottingham, UK).
Insulin-release studies were carried out using clonal pancreatic BRIN-BD11 cells as described previously (O'Harte, F. P. M. et al., 2002, Diabetologia 45: 1281-1291). Briefly, BRIN-BD11 cells were seeded into 24-well plates at a density of 10^5 cells per well, and allowed to attach overnight at 37° C. Acute tests for insulin release were preceded by 40 minutes pre-incubation at 37° C. in 1.0 ml Krebs Ringer bicarbonate buffer supplemented with 1.1 mmol/l glucose. Test incubations were performed in the presence of 5.6 mmol/l glucose with a range of concentrations (10^−13 to 10^−6 mol/l) of GIP and GIP analogues. After 20 minutes incubation, the buffer was removed from each well and aliquots (200 μl) used for measurement of insulin.

Assay [3] has as its system ob/ob mice. The assay is described as follows: Acute metabolic and dose-response effects with glucose in 18 h fasted ob/ob mice. The class given is in vivo, mouse. Conditions: for overall glucose excursion (glucose AUC) compared to glucose alone: 25 nmoles/kg i.p. with glucose 18 mmoles/kg, 0-60 min; for AUC glucose and insulin in dose-response study: 6.25, 12.5 and 25 nmoles/kg with glucose. On the procedure: (§1) Animals. Obese diabetic (ob/ob) mice derived from the colony maintained at Aston University, UK were used at 12-17 weeks of age. The genetic background and characteristics of the colony used have been outlined in detail elsewhere (Bailey, C. J. et al., 1982, Int. J. Obesity 6:11-21; Gault, V. A. et al., 2003, J. Endocrinol. 176: 133-141). Animals were housed in an air-conditioned room at 22±2° C. with a 12 hours light: 12 hours dark cycle. Drinking water and standard rodent maintenance diet (Trouw Nutrition, Cheshire, UK) were freely available. All test solutions were administered by i.p. injection in a final volume of 5 ml/kg bw. Blood was collected from the cut tip of the tail vein of conscious mice into chilled fluoride/heparin microcentrifuge tubes immediately prior to injection and at the times indicated in the Figures. Plasma was separated using a Beckman microcentrifuge (Beckman Instruments, UK) at 13,000 g for 30 second and stored at −20° C. prior to glucose and insulin determinations. All animal experiments were carried out in accordance with the UK Animals (Scientific Procedures) Act 1986.
(§2) Metabolic and dose-response effects of GIP and N-AcGIP(LysPAL) analogues (at 6.25-25 nmoles/kg bw) following glucose administration (18 mmoles/kg bw) were examined in mice fasted for 18 hours. […] Food intake and body weight were recorded daily. Plasma glucose and insulin concentrations were monitored at 2-6 day intervals. At 14 days, groups of animals were used to evaluate intraperitoneal glucose tolerance (18 mmoles/kg) and insulin sensitivity (50 U/kg). In a separate series, two experimental protocols were employed to examine the possibility of GIP receptor desensitization after 14 days treatment. […] At the end of the 14-day treatment period, pancreatic tissues were excised for measurement of insulin following extraction with 5 ml/g ice-cold acid ethanol (75% ethanol, […], 1.5% HCl). Whole blood was taken for determination of glycated hemoglobin.
(§3) Biochemical analyses. Plasma glucose was assayed by an automated glucose oxidase procedure (Stevens, J. F., 1971, Clin. Chem. Acta 32:199-201) using a Beckman Glucose Analyser II (Beckman, Galway, Ireland). Plasma insulin was determined by dextran-charcoal RIA as described previously (Flatt, P. R. et al., 1981, Diabetologia 20: 573-577). Glycated hemoglobin was determined using cation-exchange columns (Sigma, Poole, Dorset, UK) with measurement of absorbance (415 nm) in wash and eluting buffers using a VersaMax microplate spectrophotometer (Molecular Devices, Wokingham, Berkshire, UK).
(§4) Statistics. Results are expressed as mean±SEM. Data were compared using the unpaired Student's t-test. Where appropriate, data were compared using repeated measures ANOVA or one-way ANOVA, followed by the Student-Newman-Keuls post hoc test. Incremental areas under plasma glucose and insulin curves (AUC) were calculated using a computer-generated program employing the trapezoidal rule (Burington, R. S., 1973, Handbook of Mathematical Tables and Formulae, McGraw-Hill, New York) with baseline subtraction.

Assay [4] concerns ob/ob mice. The assay is described as follows: Once daily i.p. injection for 14 days in ob/ob mice. Conditions: for body weight / food intake / non-fasting plasma insulin: 14 days; for plasma insulin response to glucose (AUC) / glucose tolerance: after 14 daily injections; for glucose tolerance: i.p. glucose 18 mmoles/kg; for insulin sensitivity: after 14 days, insulin 50 U/kg i.p. The assay is classed as in vivo, mouse. The procedure:
as §1, §2, §3, §4

No end group written: not given here.

Take `CC[C@H](C)[C@H](NC(=O)[C@H](CO)NC(=O)[C@H](Cc1ccc(O)cc1)NC(=O)[C@H](CC(=O)O)NC(=O)[C@H](CO)NC(=O)[C@@H](NC(=O)[C@H](Cc1ccccc1)NC(=O)[C@@H](NC(=O)CNC(=O)[C@H](CCC(=O)O)NC(=O)[C@H](C)NC(=O)[C@@H](N)Cc1ccc(O)cc1)[C@@H](C)O)[C@@H](C)CC)C(=O)N[C@@H](C)C(=O)N[C@@H](CCSC)C(=O)N[C@@H](CC(=O)O)C(=O)N[C@@H](CCCCN)C(=O)N[C@H](C(=O)N[C@@H](Cc1c[nH]cn1)C(=O)N[C@@H](CCC(N)=O)C(=O)N[C@@H](CCC(N)=O)C(=O)N[C@@H](CC(=O)O)C(=O)N[C@@H](Cc1ccccc1)C(=O)N[C@H](C(=O)N[C@@H](CC(N)=O)C(=O)N[C@@H](Cc1c[nH]c2ccccc12)C(=O)N[C@@H](CC(C)C)C(=O)N[C@@H](CC(C)C)C(=O)N[C@@H](C)C(=O)N[C@@H](CCC(N)=O)C(=O)N[C@@H](CCCCN)C(=O)NCC(=O)N[C@@H](CCCCN)C(=O)N[C@@H](CCCCN)C(=O)N[C@@H](CC(N)=O)C(=O)N[C@@H](CC(=O)O)C(=O)N[C@@H](Cc1c[nH]c2ccccc12)C(=O)N[C@@H](CCCCN)C(=O)N[C@@H](Cc1c[nH]cn1)C(=O)N[C@@H](CC(N)=O)C(=O)N[C@H](C(=O)N[C@H](C(=O)N[C@@H](CCC(N)=O)C(=O)O)[C@@H](C)O)[C@@H](C)CC)C(C)C)[C@@H](C)CC` [GIP 1–42, reference compound]: the “insulin secretion from BRIN-BD11 cells” value in assay [1] was “prominent and dose-related stimulation of insulin secretion”. Moreover, the “insulin secretion compared to control” value in assay [2] is reported as “dose-dependently stimulated insulin secretion”. In assay [3] (25 nmoles/kg i.p. with glucose), the “overall insulinotropic response compared with glucose alone” value is given as “significantly elevated the overall insulinotropic response”. In assay [3], the “overall glucose excursion (glucose AUC) compared to glucose alone” value is on record as “failed to reach significance”; the “AUC glucose and insulin in dose-response study” value is reported as “did not significantly affect”. For the same molecule, in assay [4] (12.5 nmoles/kg/day), the body weight entry is listed as “no effect”, the food intake result is on record as “no effect” and the non-fasting plasma insulin result is given as “unchanged”. Besides, the non-fasting plasma glucose result in assay [4] (12.5 nmoles/kg/day, at 14 days) is recorded as “unchanged”. The pancreatic weight result in assay [4] (14 days treatment) is reported as “did not affect pancreatic weight”. Also, in assay [4], the “plasma insulin response to glucose (AUC)” value is reported as “had no effect”, the glucose tolerance result was “had no effect” and the insulin sensitivity result is “did not affect the characteristic insulin resistance”.
On to `CCCCCCCCCCCCCCCC(=O)NCCCC[C@H](NC(=O)[C@H](Cc1c[nH]c2ccccc12)NC(=O)[C@H](CC(=O)O)NC(=O)[C@H](CC(N)=O)NC(=O)[C@H](CCCCN)NC(=O)[C@H](CCCCN)NC(=O)CNC(=O)[C@H](CCCCN)NC(=O)[C@H](CCC(N)=O)NC(=O)[C@H](C)NC(=O)[C@H](CC(C)C)NC(=O)[C@H](CC(C)C)NC(=O)[C@H](Cc1c[nH]c2ccccc12)NC(=O)[C@H](CC(N)=O)NC(=O)[C@@H](NC(=O)[C@H](Cc1ccccc1)NC(=O)[C@H](CC(=O)O)NC(=O)[C@H](CCC(N)=O)NC(=O)[C@H](CCC(N)=O)NC(=O)[C@H](Cc1c[nH]cn1)NC(=O)[C@@H](NC(=O)[C@H](CCCCN)NC(=O)[C@H](CC(=O)O)NC(=O)[C@H](CCSC)NC(=O)[C@H](C)NC(=O)[C@@H](NC(=O)[C@H](CO)NC(=O)[C@H](Cc1ccc(O)cc1)NC(=O)[C@H](CC(=O)O)NC(=O)[C@H](CO)NC(=O)[C@@H](NC(=O)[C@H](Cc1ccccc1)NC(=O)[C@@H](NC(=O)CNC(=O)[C@H](CCC(=O)O)NC(=O)[C@H](C)NC(=O)[C@H](Cc1ccc(O)cc1)NC(C)=O)[C@@H](C)O)[C@@H](C)CC)[C@@H](C)CC)[C@@H](C)CC)C(C)C)C(=O)N[C@@H](Cc1c[nH]cn1)C(=O)N[C@@H](CC(N)=O)C(=O)N[C@H](C(=O)N[C@H](C(=O)N[C@@H](CCC(N)=O)C(=O)O)[C@@H](C)O)[C@@H](C)CC` [N-AcGIP(LysPAL^37)], for which the “insulin secretion compared to control” value in assay [2] is given as “significantly stimulated glucose-induced insulin secretion”. For the same molecule, in assay [3] (6.25 nmoles/kg with glucose), the “antihyperglycaemic effect compared to glucose alone” value was “highly significant antihyperglycaemic properties” and the “insulin response (AUC) compared to glucose alone” value stood at 2.0 fold. Also, in assay [3] (25 nmoles/kg i.p. with glucose), the “enhancement of overall glucose-mediated insulin release (AUC) compared to native GIP” value was found to be 2.3 fold, the “overall glucose excursion compared to native GIP” value is “decreased the overall glucose excursion” and the “potency at stimulating insulin secretion relative to N-AcGIP(LysPAL^16)” value is 1.5 fold. Besides, in assay [3], the “overall glucose excursion (glucose AUC) compared to glucose alone” value is reported as “significantly lowered glucose AUC”; the “AUC glucose and insulin in dose-response study” value was “prominent dose-dependent antihyperglycaemic and insulinotropic actions at all doses administered”. In assay [4] (12.5 nmoles/kg/day), the body weight result is listed as “no effect”, the food intake entry is listed as “no effect” and the non-fasting plasma insulin entry is given as “tendency towards elevated insulin concentrations”. Also, in assay [4] (12.5 nmoles/kg/day, at 14 days), the glycated hemoglobin entry is reported as “significantly (p<0.01) decreased” and the non-fasting plasma glucose result is recorded as “significantly (p<0.05) lowered”. In assay [4] (14 days treatment), the pancreatic insulin content entry is “significantly increased” and the pancreatic weight entry is on record as “did not affect pancreatic weight”. In addition, the GIP receptor desensitization entry in assay [4] (acute 25 nmoles/kg with glucose after 14 days treatment) is “lack of GIP receptor desensitization”. Further, in assay [4], the “plasma insulin response to glucose (AUC)” value was “greater (p<0.01) overall AUC insulin response”, the glucose tolerance entry is recorded as “significant improvement in glucose tolerance” and the insulin sensitivity result is on record as “significant improvement of insulin sensitivity”.
Turning to “YAPGTFISDYSIAMDKIHQQDFVNWLLAQKGKKNDWKHNITQ [(Pro^3)GIP]”, the “insulin secretion from BRIN-BD11 cells” value in assay [1] is “least potent analogues in terms of insulin release”.

Source of the values: patent US7875587B2, “Peptide analogues of GIP for treatment of diabetes, insulin resistance and obesity” (UUTECH Limited, priority 2004, dated 2011).
